Series [1] in a line: Exposed Polar Surface Area (EPSA). It counts as physicochemical. The note with it: SFC on Chirex 3014 column; sample 1 mM DMSO stock; read-out: EPSA. The method, boiled down: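 EPSA, in Å^2, is read from SFC retention time through a linear relationship established with eight calibration standards. Separation uses a Chirex 3014 stationary phase, 35 °C, 14 MPa back pressure, and a 5–60% methanol/ammonium formate modifier gradient in CO2.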

A further series deals with T1, IL-23R (Homo sapiens, UniProt Q5VWK5).
T1 construct: host or cells: HEK293
T1 sequence (Q5VWK5 24-629): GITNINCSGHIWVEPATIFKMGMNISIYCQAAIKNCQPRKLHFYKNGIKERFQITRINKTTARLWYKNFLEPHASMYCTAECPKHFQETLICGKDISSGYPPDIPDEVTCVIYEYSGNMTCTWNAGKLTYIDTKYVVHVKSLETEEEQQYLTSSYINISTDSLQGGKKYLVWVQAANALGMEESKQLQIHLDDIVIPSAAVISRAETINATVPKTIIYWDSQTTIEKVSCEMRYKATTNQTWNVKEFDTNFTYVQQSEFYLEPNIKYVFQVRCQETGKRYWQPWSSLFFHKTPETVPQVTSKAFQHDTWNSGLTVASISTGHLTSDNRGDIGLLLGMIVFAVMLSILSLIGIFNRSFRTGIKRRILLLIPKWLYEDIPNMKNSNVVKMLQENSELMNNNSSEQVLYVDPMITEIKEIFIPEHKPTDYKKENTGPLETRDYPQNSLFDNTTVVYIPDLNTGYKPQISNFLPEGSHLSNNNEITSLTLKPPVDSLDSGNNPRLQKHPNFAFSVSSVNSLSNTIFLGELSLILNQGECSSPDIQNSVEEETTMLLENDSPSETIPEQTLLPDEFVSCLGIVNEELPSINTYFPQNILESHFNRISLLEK
Put plainly: IL23R Reporter Assay. It counts as cell-based. The following applies: HEK293 cells containing IL-23R, IL-12RP1 and STAT-inducible firefly luciferase reporter; 10 ng/mL IL-23 (EC90); 5 h at 37° C.; read-out: IL23R Reporter Assay. In general terms: Reporter assays use an easily measured gene product as a stand-in for the process of interest.

Structures can show the parent of a compound that is named as a salt. Starred links: 1 amine or outer side, 2 acyl side, 3 side chain; linkers in the order of their positions; H or OH if unused. Positions of bridges follow the written chain, without caps; N, C: chain ends. Non-standard residues stand in square brackets, D forms with d. Residues, ends and D or L forms follow the SMILES beside them. Groups on a side chain read outwards from the residue. *: point of attachment. Me3N+(CH2)2O(CH2)2O(CH2)2CO = C[N+](C)(C)CCOCCOCCC(=O)*; CH2CH2OCH2CH2OCH2CH2NMe3+ = C[N+](C)(C)CCOCCOCC*; Trp(7-Me) = Cc1cccc2c(C[C@H](N)C(=O)O)c[nH]c12; d(hLys(Me3)) = C[N+](C)(C)CCCCC[C@@H](N)C(=O)O; Abu(4-yl) = O=C([C@H](CC[*:3])N[*:1])[*:2]; 3Pal(5-Me) = Cc1cncc(C[C@H](N)C(=O)O)c1; γGlu = O=C(O)[C@H](CCC(=O)[*:2])N[*:1]; 2Nal = N[C@@H](Cc1ccc2ccccc2c1)C(=O)O; AEF = NCCOc1ccc(C[C@H](N)C(=O)O)cc1; PEG6 = NCCOCCOCCOCCOCCOCCOCCC(=O)O; 3Pal = N[C@@H](Cc1cccnc1)C(=O)O; Lys(Me) = CNCCCC[C@H](N)C(=O)O; NMeK = CN[C@@H](CCCCN)C(=O)O; Pen = CC(C)(S)[C@H](N)C(=O)O; Lauroyl = CCCCCCCCCCCC(=O)*; X38 = C[N+](C)(C)CCCCCC*; Thp = NC1(C(=O)O)CCOCC1; X3 = C[N+](C)(C)CCCCC*; AEEA = NCCOCCOCC(=O)O; Tfa = O=C(C(F)(F)F)*; Sar = CNCC(=O)O

As for `CC(=O)N[C@H](CCCCC[N+](C)(C)C)C(=O)N[C@@H]1C(=O)N[C@@H](CC(=O)N(C)C)C(=O)N[C@@H]([C@@H](C)O)C(=O)N[C@@H](Cc2c[nH]c3c(C)cccc23)C(=O)N[C@@H](CCCCN(C)C(C)=O)C(=O)N[C@H](C(=O)N[C@@H](Cc2ccc(OCCCCC[N+](C)(C)C)cc2)C(=O)N[C@@H](Cc2ccc3ccccc3c2)C(=O)NC2(C(=O)N[C@@H](CCCCN(C)C(C)=O)C(=O)N[C@@H](CC(N)=O)C(=O)N[C@@H](Cc3cccnc3)C(=O)N(C)CC(=O)N(C)C)CCOCC2)C(C)(C)SSC1(C)C` [compound 344, MeCO-hk(Me)3-Pen(3)-N(N(Me)2)-T-7MeW-K(NMeAc)-Pen(3)-TMAPF-2Nal-THP-K(NMeAc)-N-3Pya-Sar-CON(Me)2] (Ac-[d(hLys(Me3))][Pen]D(NMe2)T[Trp(7-Me)][Lys(Me)](Ac)[Pen]Y(X3)[2Nal][Thp][Lys(Me)](Ac)N[3Pal][Sar]-NMe2; disulfide 2-7), in series [1], the EPSA was 158 A^2. For the same molecule, the IC50 on IL-23R is 6.6 nM.
On the same counts, the results for `Cc1cccc2c(C[C@@H]3NC(=O)[C@H]([C@@H](C)O)NC(=O)[C@H](CC(=O)N(C)C)NC(=O)[C@@H](NC(=O)CCOCCOCC[N+](C)(C)C)C(C)(C)SSC(C)(C)[C@@H](C(=O)N[C@@H](Cc4ccc(OCCN)cc4)C(=O)N[C@@H](Cc4ccc5ccccc5c4)C(=O)NC4(C(=O)N[C@@H](CCC(=O)N(C)C)C(=O)N[C@@H](CC(N)=O)C(=O)N[C@@H](Cc5cccnc5)C(=O)N(C)CC(N)=O)CCOCC4)NC(=O)[C@H](CCC(=O)N(C)C)NC3=O)c[nH]c12` [compound 147, cPEG3aCO-Pen(3)-N(N(Me)2)-T-7MeW-Q(N(Me)2)-Pen(3)-AEF-2Nal-THP-Q(N(Me)2)-N-3Pya-Sar-CONH2] ({Me3N+(CH2)2O(CH2)2O(CH2)2CO}-[Pen]D(NMe2)T[Trp(7-Me)]E(NMe2)[Pen][AEF][2Nal][Thp]E(NMe2)N[3Pal][Sar]-NH2; disulfide 1-6) are 156 A^2 and 3.8 nM.
On the same counts, the results for `CC(=O)N(C)CCCC[C@@H]1NC(=O)[C@H](Cc2c[nH]c3c(C)cccc23)NC(=O)[C@H]([C@@H](C)O)NC(=O)[C@H](CC(=O)N(C)C)NC(=O)[C@@H](NC(=O)CCOCCOCC[N+](C)(C)C)C(C)(C)SSC(C)(C)[C@@H](C(=O)N[C@@H](Cc2ccc(OCCOCCOCC[N+](C)(C)C)cc2)C(=O)N[C@@H](Cc2ccc3ccccc3c2)C(=O)NC2(C(=O)N[C@@H](Cc3c[nH]c4ccccc34)C(=O)N[C@@H](CC(N)=O)C(=O)N[C@@H](Cc3cccnc3)C(=O)N(C)CC(=O)N(C)C)CCOCC2)NC1=O` [compound 470, cPEG3aCO-Pen(3)-N(N(Me)2)-T-7MeW-K(NMeAc)-Pen(3)-APEG3F-2Nal-THP-W-N-3Pya-Sar-CON(Me)2] ({Me3N+(CH2)2O(CH2)2O(CH2)2CO}-[Pen]D(NMe2)T[Trp(7-Me)][Lys(Me)](Ac)[Pen]Y(CH2CH2OCH2CH2OCH2CH2NMe3+)[2Nal][Thp]WN[3Pal][Sar]-NMe2; disulfide 1-6) are 160 A^2 and 1.2 nM.
On the same counts, the results for `CCCCCCCCCCCC(=O)N[C@@H](CCC(=O)NCCOCCOCCOCCOCCOCCOCCC(=O)NCCOCCOCC(=O)NCCCC[C@@H](C(N)=O)N(C)C(=O)[C@H](Cc1cccnc1)NC(=O)[C@H](CC(N)=O)NC(=O)[C@H](CCCCN(C)C(C)=O)NC(=O)C1(NC(=O)[C@H](Cc2ccc3ccccc3c2)NC(=O)[C@H](Cc2ccc(OCCCCC[N+](C)(C)C)cc2)NC(=O)[C@H]2NC(=O)[C@H](CCCCNC(C)=O)NC(=O)[C@H](Cc3c[nH]c4c(C)cccc34)NC(=O)[C@H]([C@@H](C)O)NC(=O)[C@H](CC(=O)N(C)C)NC(=O)[C@@H](NC(=O)CCOCCOCC[N+](C)(C)C)C(C)(C)SSC2(C)C)CCOCC1)C(=O)O` [compound 360, cPEG3aCO-Pen(3)-N(N(Me)2)-T-7MeW-K(Ac)-Pen(3)-TMAPF-2Nal-THP-K(NMeac)-N-3Pya-NMeK(PEG2PEG6gEC12)-CONH2] ({Me3N+(CH2)2O(CH2)2O(CH2)2CO}-[Pen]D(NMe2)T[Trp(7-Me)]K(Ac)[Pen]Y(X3)[2Nal][Thp][Lys(Me)](Ac)N[3Pal][NMeK]([AEEA-PEG6-γGlu-Lauroyl])-NH2; disulfide 1-6) are 166 A^2 and 8.4 nM.
Consider `CC(=O)NCCCC[C@@H]1NC(=O)[C@H](Cc2c[nH]c3c(C)cccc23)NC(=O)[C@H]([C@@H](C)O)NC(=O)[C@H](CC(=O)N(C)C)NC(=O)[C@@H](NC(=O)C(F)(F)F)C(C)(C)SSC(C)(C)[C@@H](C(=O)N[C@@H](Cc2ccc(OCCN)cc2)C(=O)N[C@@H](Cc2ccc3ccccc3c2)C(=O)NC2(C(=O)N[C@@H](CCCCNC(C)=O)C(=O)N[C@@H](CC(N)=O)C(=O)N[C@@H](Cc3cccnc3)C(=O)N(C)CC(N)=O)CCOCC2)NC1=O` [compound 52, CF3CO-Pen(3)-N(N(Me)2)-T-7MeW-K(Ac)-Pen(3)-AEF-2Nal-THP-K(Ac)-N-3Pya-Sar-CONH2] (Tfa-[Pen]D(NMe2)T[Trp(7-Me)]K(Ac)[Pen][AEF][2Nal][Thp]K(Ac)N[3Pal][Sar]-NH2; disulfide 1-6 (inferred)), for which the EPSA in series [1] worked out at 158 A^2. The IC50 at IL-23R came out at 4.6 nM.
On the same counts, the results for `CC(=O)NCCCC[C@@H]1NC(=O)[C@H](Cc2c[nH]c3c(C)cccc23)NC(=O)[C@H]([C@@H](C)O)NC(=O)[C@H](CC(N)=O)NC(=O)[C@@H](NC(C)=O)C(C)(C)SSC(C)(C)[C@@H](C(=O)N[C@@H](Cc2ccc(OCCCCC[N+](C)(C)C)cc2)C(=O)N[C@@H](Cc2ccc3ccccc3c2)C(=O)NC2(C(=O)N[C@@H](CCCCNC(=O)CCCCCc3ccc(I)cc3)C(=O)N[C@@H](CC(N)=O)C(=O)N[C@@H](Cc3cccnc3)C(=O)N(C)CC(N)=O)CCOCC2)NC1=O` [compound 546, MeCO-Pen(3)-N-T-7MeW-K(Ac)-Pen(3)-TMAPF-2Nal-THP-K(IPB)-N-3Pya-Sar-CONH2] are 168 A^2 and 7.2 nM.
In the case of `CC(=O)NCCCC[C@@H]1NC(=O)[C@H](Cc2c[nH]c3c(C)cccc23)NC(=O)[C@H]([C@@H](C)O)NC(=O)[C@H](CC(N)=O)NC(=O)[C@@H](NC(=O)[C@@H](CCCNC(=N)N)NC(=O)CCOCCOCC[N+](C)(C)C)C(C)(C)SSC(C)(C)[C@@H](C(=O)N[C@@H](Cc2ccc(OCCN)cc2)C(=O)N[C@@H](Cc2ccc3ccccc3c2)C(=O)NC2(C(=O)N[C@@H](CCCCNC(C)=O)C(=O)N[C@@H](CC(N)=O)C(=O)N[C@@H](Cc3cncc(C)c3)C(=O)N(C)CC(N)=O)CCOCC2)NC1=O` [compound 541, cPEG3aCO-r-Pen(3)-N-T-7MeW-K(Ac)-Pen(3)-AEF-2Nal-THP-K(Ac)-N-5MePyridinAla-Sar-CONH2] ({Me3N+(CH2)2O(CH2)2O(CH2)2CO}-[dR][Pen]NT[Trp(7-Me)]K(Ac)[Pen][AEF][2Nal][Thp]K(Ac)N[3Pal(5-Me)][Sar]-NH2; disulfide 2-7), the EPSA in series [1] was determined as 187 A^2. In addition, the IC50 on IL-23R came out at 0.97 nM.
Turning to `CC(=O)N(C)CCCC[C@@H]1NC(=O)[C@H](Cc2c[nH]c3c(C)cccc23)NC(=O)[C@H]([C@@H](C)O)NC(=O)[C@H](CC(=O)N(C)C)NC(=O)[C@@H](NC(=O)CCOCCOCC[N+](C)(C)C)C(C)(C)SSC(C)(C)[C@@H](C(=O)N[C@@H](Cc2ccc(OCCCCCC[N+](C)(C)C)cc2)C(=O)N[C@@H](Cc2ccc3ccccc3c2)C(=O)NC2(C(=O)N[C@@H](CCCCN(C)C(C)=O)C(=O)N[C@@H](CC(N)=O)C(=O)N[C@@H](Cc3cccnc3)C(=O)N(C)CC(=O)N(C)C)CCOCC2)NC1=O` [compound 293, cPEG3aCO-Pen(3)-N(N(Me)2)-T-7MeW-K(NMeAc)-Pen(3)-TMA6F-2Nal-THP-K(NMeAc)-N-3Pya-Sar-CON(Me)2] ({Me3N+(CH2)2O(CH2)2O(CH2)2CO}-[Pen]D(NMe2)T[Trp(7-Me)][Lys(Me)](Ac)[Pen]Y(X38)[2Nal][Thp][Lys(Me)](Ac)N[3Pal][Sar]-NMe2; disulfide 1-6), the EPSA in series [1] was found to be 149 A^2. On IL-23R, the IC50 amounted to 3.2 nM.
For `CC(=O)N(C)CCCC[C@@H]1NC(=O)[C@H](Cc2c[nH]c3c(C)cccc23)NC(=O)[C@H]([C@@H](C)O)NC(=O)[C@H](CC(=O)N(C)C)NC(=O)[C@@H](NC(=O)CCOCCOCC[N+](C)(C)C)CCSC[C@@H](C(=O)N[C@@H](Cc2ccc(OCCCCC[N+](C)(C)C)cc2)C(=O)N[C@@H](Cc2ccc3ccccc3c2)C(=O)NC2(C(=O)N[C@@H](CCCCN(C)C(C)=O)C(=O)N[C@@H](CC(N)=O)C(=O)N[C@@H](Cc3cccnc3)C(=O)N(C)CC(=O)N(C)C)CCOCC2)NC1=O` [compound 523, cPEG3aCO-Abu(1)-N(N(Me)2)-T-7MeW-K(NMeAc)-C(1)-TMAPF-2Nal-THP-K(NMeAc)-N-3Pya-Sar-CON(Me)2] ({Me3N+(CH2)2O(CH2)2O(CH2)2CO}-[Abu(4-yl)]D(NMe2)T[Trp(7-Me)][Lys(Me)](Ac)CY(X3)[2Nal][Thp][Lys(Me)](Ac)N[3Pal][Sar]-NMe2; thioether 1-6), the EPSA in series [1] was 154 A^2. For the same molecule, on IL-23R, the IC50 turned out to be 5.2 nM.

Source of the values: US20260022143A1, “Cyclic Peptide Inhibitors of IL-23” (JANSSEN PHARMACEUTICA NV, priority 2022, published 2026).
